Experimental data from patent publication US8956445B2, “High stability diionic liquid salts” (Sigma-Aldrich Co., priority 2004, dated 2015).
Where two headings read alike, the source gives them in different places.

Legend:
[1] = Density (2.0 mL volumetric tube, weighing by difference); type: physicochemical; details: 23° C.
Method: (§1) The densities of the ionic liquids or, more correctly, […] (used synonymously except as indicated otherwise explicitly or by context) was determined at 23° C. by placing 2.0 mL of the ionic liquid in a 2.0 mL volumetric tube and weighing by difference. The melting points of the ionic liquids were determined using a Perkin Elmer Pyris 1 Differential Scanning calorimeter (Boston, Mass.). Typical methods involved using a 10° C./min temperature ramp to determine and identify the first and second order thermal transitions. […] For solid compounds, the melting points were verified using a capillary melting point apparatus. Refractive index measurements were conducted at 23° C. using a Bausch & Lomb Abbe-3L refractometer.

[2] = Refractive index (Abbe-3L refractometer); type: physicochemical; details: 23° C.
Method: as §1

[3] = Surface tension (DuNuoy Tensiometer); type: physicochemical; details: room temperature (23° C.)

Structure (SMILES)	Density [1] [g/mL]	Refractive Index [2]	Surface Tension [3] [dynes/cm]	Miscibility with Heptane	Miscibility with Water	Miscibility with Water (listed as 19)	Miscibility with Water (listed as 15)
Cn1cc[n+](CCC[n+]2ccn(C)c2)c1.O=S(=O)([N-]S(=O)(=O)C(F)(F)F)C(F)(F)F.O=S(=O)([N-]S(=O)(=O)C(F)(F)F)C(F)(F)F [C3(mim)2-NTf2, 1,3-di(3-methylimidazolium)propane di-bis[(trifluoromethyl)sulfonyl]imidate]	1.61	1.440	44.7	Immiscible	Immiscible		
CCCCn1cc[n+](CCCCCCCCC[n+]2ccn(CCCC)c2)c1.F[B-](F)(F)F.F[B-](F)(F)F [C9(bim)2-BF4, 1,9-di(3-butylimidazolium)nonane di-tetrafluoroborate]	1.20	1.503	50.4	Immiscible	Partially	solubility of the salt in water decreases	
Cn1cc[n+](CCCCCCCCCCCC[n+]2ccn(C)c2)c1.F[B-](F)(F)F.F[B-](F)(F)F [C12(mim)2-BF4, 1,12-di(3-methylimidazolium)dodecane di-tetrafluoroborate]	1.26	1.503	55.8	Immiscible	Partially		solubility of the salt in water decreases
Cn1cc[n+](CCCCCC[n+]2ccn(C)c2)c1.O=S(=O)([N-]S(=O)(=O)C(F)(F)F)C(F)(F)F.O=S(=O)([N-]S(=O)(=O)C(F)(F)F)C(F)(F)F [C6(mim)2-NTf2, 1,6-di(3-methylimidazolium)hexane di-bis[(trifluoromethyl)sulfonyl]imida]	1.52	1.441	44.2	Immiscible	Immiscible		
F[P-](F)(F)(F)(F)F.F[P-](F)(F)(F)(F)F.c1ccc(Cn2cc[n+](CCCCCCCCCCCC[n+]3ccn(Cc4ccccc4)c3)c2)cc1 [C12(benzim)2-PF6, 1,12-di(3-benzylimidazolium)dodecane di-hexafluorophosphate]	1.27	1.484	47.4	Immiscible	Immiscible		
Cc1n(C)cc[n+]1CCCCCCCCC[n+]1ccn(C)c1C.O=S(=O)([N-]S(=O)(=O)C(F)(F)F)C(F)(F)F.O=S(=O)([N-]S(=O)(=O)C(F)(F)F)C(F)(F)F [C9(m2im)2-NTf2, 1,9-di(2,3-dimethylimidazolium)nonane di-bis[(trifluoromethyl)sulfonyl]imidate]	1.47	1.448	43.5	Immiscible	Immiscible		
Cn1cc[n+](CCCCCCCCC[n+]2ccn(C)c2)c1.F[B-](F)(F)F.F[B-](F)(F)F [C9(mim)2-BF4, 1,9-di(3-methylimidazolium)nonane di-tetrafluoroborate]	1.33	1.469	61.2	Immiscible	Miscible		
